Test results reported in ChEMBL document CHEMBL5030517, “6-Halopyridylmethylidene Penicillin-Based Sulfones Efficiently Inactivate the Natural Resistance of Pseudomonas aeruginosa to β-Lactam Antibiotics” (J Med Chem, 2021).
Converted amounts (≈) assume the structure as drawn. One block for each compound: values may come before it. The source made the active and inactive calls. The rule behind the calls is not given here.

What was measured:
[1] = test system: Pseudomonas aeruginosa PAO1; test: Inhibition of beta-lactamase activity in Pseudomonas aeruginosa PAO1 assessed as MIC for cefpodoxime antibacterial activity at 16 mg/L by broth microdilution method
[2] = test system: Pseudomonas aeruginosa PAO1; test: Inhibition of beta-lactamase activity in Pseudomonas aeruginosa PAO1 deltadacBdeltadacC assessed as MIC for cefpodoxime antibacterial activity at 4 mg/L by broth microdilution method
[3] = test system: Pseudomonas aeruginosa PAO1; test: Inhibition of beta-lactamase activity in Pseudomonas aeruginosa PAO1 23/14-053 (ST-309) assessed as MIC for cefpodoxime antibacterial activity at 16 mg/L by broth microdilution method
[4] = test system: Pseudomonas aeruginosa PAO1; test: Inhibition of beta-lactamase activity in Pseudomonas aeruginosa PAO1 13/09-018 (ST-175) assessed as MIC for cefpodoxime antibacterial activity at 16 mg/L by broth microdilution method
[5] = test system: Pseudomonas aeruginosa PAO1; test: Inhibition of beta-lactamase activity in Pseudomonas aeruginosa PAO1 deltaDdeltsDh2deltaDh3 assessed as MIC for cefpodoxime antibacterial activity at 4 mg/L by broth microdilution method
[6] = test system: Pseudomonas aeruginosa PAO1; test: Inhibition of beta-lactamase activity in Pseudomonas aeruginosa PAO1 assessed as MIC for cefpodoxime antibacterial activity at 4 mg/L by broth microdilution method
[7] = test system: Pseudomonas aeruginosa PAO1; test: Inhibition of beta-lactamase activity in Pseudomonas aeruginosa PAO1 deltaC assessed as MIC for cefpodoxime antibacterial activity at 16 mg/L by broth microdilution method
[8] = test system: Pseudomonas aeruginosa PAO1; test: Inhibition beta lactamase PDC-1 in Pseudomonas aeruginosa PAO1 assessed as maximum rate of inactivation using nitrocefin as substrate measured by 96 well microtitre plate
[9] = test system: Pseudomonas aeruginosa PAO1; test: Inhibition of beta-lactamase activity in Pseudomonas aeruginosa PAO1 6/04-224 (ST-175) assessed as MIC for cefpodoxime antibacterial activity at 4 mg/L by broth microdilution method
[10] = Inhibition beta lactamase PDC-1 in Pseudomonas aeruginosa PAO1 assessed as apparent inhibition constant using nitrocefin as substrate measured by 96 well microtitre plate; conditions: read-out: Ki(app)
[11] = test system: Pseudomonas aeruginosa PAO1; test: Inhibition of beta-lactamase activity in Pseudomonas aeruginosa PAO1 deltadacB assessed as MIC for cefpodoxime antibacterial activity at 4 mg/L by broth microdilution method
[12] = test system: Pseudomonas aeruginosa PAO1; test: Inhibition of beta-lactamase activity in Pseudomonas aeruginosa PAO1 deltaC+pUCP-(PDC-1) assessed as MIC for cefpodoxime antibacterial activity at 16 mg/L by broth microdilution method
[13] = test system: Pseudomonas aeruginosa PAO1; test: Inhibition of beta-lactamase activity in Pseudomonas aeruginosa PAO1 deltadacBdeltapbpGdeltadacC assessed as MIC for cefpodoxime antibacterial activity at 4 mg/L by broth microdilution method
[14] = test system: Pseudomonas aeruginosa PAO1; test: Inhibition of beta-lactamase activity in Pseudomonas aeruginosa PAO1 PAHUAC-14 (ST-966) assessed as MIC for cefpodoxime antibacterial activity at 16 mg/L by broth microdilution method
[15] = Inhibition beta lactamase PDC-1 in Pseudomonas aeruginosa PAO1 using nitrocefin as substrate measured by 96 well microtitre plate
Pseudomonas aeruginosa = test: Inhibition of beta lactamase PDC-1 in Pseudomonas aeruginosa PAO1 for 30 min using MALDI TOF-MS analysis
[16] = test system: Pseudomonas aeruginosa PAO1; test: Inhibition of beta-lactamase activity in Pseudomonas aeruginosa PAO1 PAHUAC-27(ST-22) assessed as MIC for cefpodoxime antibacterial activity at 16 mg/L by broth microdilution method
[17] = test system: Pseudomonas aeruginosa PAO1; test: Inhibition beta lactamase PDC-1 in Pseudomonas aeruginosa PAO1 assessed as inactivation efficiency by measuring acylation rate (k2/K) using nitrocefin as substrate measured by 96 well microtitre plate
[18] = test system: Pseudomonas aeruginosa PAO1; test: Inhibition of beta-lactamase activity in Pseudomonas aeruginosa PAO1 deltaC+pUCP-(PDC-1) assessed as MIC for cefpodoxime antibacterial activity at 4 mg/L by broth microdilution method
[19] = test system: Pseudomonas aeruginosa PAO1; test: Inhibition of beta-lactamase activity in Pseudomonas aeruginosa PAO1 deltaC assessed as MIC for cefpodoxime antibacterial activity at 4 mg/L by broth microdilution method
[20] = test system: Pseudomonas aeruginosa PAO1; test: Inhibition of beta-lactamase activity in Pseudomonas aeruginosa PAO1 13/09-018 (ST-175) assessed as MIC for cefpodoxime antibacterial activity at 4 mg/L by broth microdilution method
[21] = test system: Pseudomonas aeruginosa PAO1; test: Inhibition of beta-lactamase activity in Pseudomonas aeruginosa PAO1 36/14-210 (ST-235) assessed as MIC for cefpodoxime antibacterial activity at 4 mg/L by broth microdilution method
[22] = test system: Pseudomonas aeruginosa PAO1; test: Inhibition beta lactamase PDC-1 in Pseudomonas aeruginosa PAO1 assessed as deacylation off-rate using nitrocefin as substrate at 30 mins measured by 96 well microtitre plate
[23] = test system: Pseudomonas aeruginosa PAO1; test: Inhibition of beta-lactamase activity in Pseudomonas aeruginosa PAO1 deltadacBdeltadacC assessed as MIC for cefpodoxime antibacterial activity at 16 mg/L by broth microdilution method
[24] = test system: Pseudomonas aeruginosa PAO1; test: Inhibition of beta-lactamase activity in Pseudomonas aeruginosa PAO1 17/14-017 (ST-235) assessed as MIC for cefpodoxime antibacterial activity at 16 mg/L by broth microdilution method
[25] = test system: Pseudomonas aeruginosa PAO1; test: Inhibition of beta-lactamase activity in Pseudomonas aeruginosa PAO1 deltaampD assessed as MIC for cefpodoxime antibacterial activity at 16 mg/L by broth microdilution method
[26] = test system: Pseudomonas aeruginosa PAO1; test: Inhibition of beta-lactamase activity in Pseudomonas aeruginosa PAO1 23/14-053 (ST-309) assessed as MIC for cefpodoxime antibacterial activity at 4 mg/L by broth microdilution method
[27] = test system: Pseudomonas aeruginosa PAO1; test: Inhibition of beta-lactamase activity in Pseudomonas aeruginosa PAO1 PAHUAC-27(ST-22) assessed as MIC for cefpodoxime antibacterial activity at 4 mg/L by broth microdilution method
[28] = test system: Pseudomonas aeruginosa PAO1; test: Inhibition of beta-lactamase activity in Pseudomonas aeruginosa PAO1 deltadacBdeltaampD assessed as MIC for cefpodoxime antibacterial activity at 16 mg/L by broth microdilution method
[29] = test system: Pseudomonas aeruginosa PAO1; test: Inhibition of beta-lactamase activity in Pseudomonas aeruginosa PAO1 deltaDdeltsDh2deltaDh3 assessed as MIC for cefpodoxime antibacterial activity at 16 mg/L by broth microdilution method
[30] = test system: Pseudomonas aeruginosa PAO1; test: Inhibition of beta-lactamase activity in Pseudomonas aeruginosa PAO1 PAHUAC-14 (ST-966) assessed as MIC for cefpodoxime antibacterial activity at 4 mg/L by broth microdilution method
[31] = test system: Pseudomonas aeruginosa PAO1; test: Inhibition of beta-lactamase activity in Pseudomonas aeruginosa PAO1 deltaC+pUCP-(PDC-5) assessed as MIC for cefpodoxime antibacterial activity at 4 mg/L by broth microdilution method
[32] = test system: Pseudomonas aeruginosa PAO1; test: Inhibition of beta-lactamase activity in Pseudomonas aeruginosa PAO1 53/22-113 (ST-244) assessed as MIC for cefpodoxime antibacterial activity at 4 mg/L by broth microdilution method
[33] = test system: Pseudomonas aeruginosa PAO1; test: Inhibition of beta-lactamase activity in Pseudomonas aeruginosa PAO1 deltadacBdeltaampD assessed as MIC for cefpodoxime antibacterial activity at 4 mg/L by broth microdilution method
[34] = test system: Pseudomonas aeruginosa PAO1; test: Inhibition of beta-lactamase activity in Pseudomonas aeruginosa PAO1 6/04-224 (ST-175) assessed as MIC for cefpodoxime antibacterial activity at 16 mg/L by broth microdilution method
[35] = test system: Pseudomonas aeruginosa PAO1; test: Inhibition of beta-lactamase activity in Pseudomonas aeruginosa PAO1 17/14-017 (ST-235) assessed as MIC for cefpodoxime antibacterial activity at 4 mg/L by broth microdilution method
[36] = test system: Pseudomonas aeruginosa PAO1; test: Inhibition of beta-lactamase activity in Pseudomonas aeruginosa PAO1 deltadacB assessed as MIC for cefpodoxime antibacterial activity at 16 mg/L by broth microdilution method
[37] = test system: Pseudomonas aeruginosa PAO1; test: Inhibition of beta-lactamase activity in Pseudomonas aeruginosa PAO1 36/14-210 (ST-235) assessed as MIC for cefpodoxime antibacterial activity at 16 mg/L by broth microdilution method
[38] = test system: Pseudomonas aeruginosa PAO1; test: Inhibition of beta-lactamase activity in Pseudomonas aeruginosa PAO1 deltaC+pUCP-(PDC-5) assessed as MIC for cefpodoxime antibacterial activity at 16 mg/L by broth microdilution method
[39] = test system: Pseudomonas aeruginosa PAO1; test: Inhibition beta lactamase PDC-1 in Pseudomonas aeruginosa PAO1 assessed as ratio of kinact/K1 using nitrocefin as substrate measured by 96 well microtitre plate
[40] = test system: Pseudomonas aeruginosa PAO1; test: Inhibition of beta-lactamase activity in Pseudomonas aeruginosa PAO1 deltadacBdeltapbpGdeltadacC assessed as MIC for cefpodoxime antibacterial activity at 16 mg/L by broth microdilution method
[41] = test system: Pseudomonas aeruginosa PAO1; test: Inhibition of beta-lactamase activity in Pseudomonas aeruginosa PAO1 53/22-113 (ST-244) assessed as MIC for cefpodoxime antibacterial activity at 16 mg/L by broth microdilution method
[42] = test system: Pseudomonas aeruginosa PAO1; test: Inhibition of beta-lactamase activity in Pseudomonas aeruginosa PAO1 deltaampD assessed as MIC for cefpodoxime antibacterial activity at 4 mg/L by broth microdilution method
[43] = test system: Pseudomonas aeruginosa PAO1; test: Inhibition beta lactamase PDC-1 in Pseudomonas aeruginosa PAO1 assessed half life of nitrocefin substrate measured by 96 well microtitre plate assay
[44] = test system: Pseudomonas aeruginosa PAO1; test: Inhibition of beta lactamase PDC-1 in Pseudomonas aeruginosa PAO1 assessed as reduction in enzyme activity using nitrocefin as chromogenic substrate preincubated for 10 min using 96 well microtiter plate

- MIC [1]: 1 µg/mL (≈ 1.97 µM)
- MIC [2]: 2 µg/mL (≈ 3.95 µM)
- MIC [3]: 2 µg/mL (≈ 3.95 µM)
- MIC [4]: 8 µg/mL (≈ 15.8 µM)
- MIC [5]: 8 µg/mL (≈ 15.8 µM)
- MIC [6]: 1 µg/mL (≈ 1.97 µM)
- MIC [7]: 1 µg/mL (≈ 1.97 µM)
- Kinact [8]: 0.013 s⁻¹
- MIC [9]: 8 µg/mL (≈ 15.8 µM)
- Ki [10]: 110 nM
- MIC [11]: 1 µg/mL (≈ 1.97 µM)
- MIC [12]: 1 µg/mL (≈ 1.97 µM)
- MIC [13]: 1 µg/mL (≈ 1.97 µM)
- MIC [14]: 2 µg/mL (≈ 3.95 µM)
- IC50 [15]: 6.3 nM
- inhibition (Pseudomonas aeruginosa): inactive
- MIC [16]: 2 µg/mL (≈ 3.95 µM)
- k2/K inactivation efficiency [17]: 6.8 M⁻¹ s⁻¹
- MIC [18]: 1 µg/mL (≈ 1.97 µM)
- MIC [19]: 1 µg/mL (≈ 1.97 µM)
- MIC [20]: 2 µg/mL (≈ 3.95 µM)
- MIC [21]: 16 µg/mL (≈ 31.6 µM)
- K [22]: 9 10^-2/min
- MIC [23]: 0.5 µg/mL (≈ 0.987 µM)
- MIC [24]: 4 µg/mL (≈ 7.9 µM)
- MIC [25]: 1 µg/mL (≈ 1.97 µM)
- MIC [26]: 2 µg/mL (≈ 3.95 µM)
- MIC [27]: 4 µg/mL (≈ 7.9 µM)
- MIC [28]: 2 µg/mL (≈ 3.95 µM)
- MIC [29]: 1 µg/mL (≈ 1.97 µM)
- MIC [30]: 8 µg/mL (≈ 15.8 µM)
- MIC [31]: 2 µg/mL (≈ 3.95 µM)
- MIC [32]: 8 µg/mL (≈ 15.8 µM)
- MIC [33]: 8 µg/mL (≈ 15.8 µM)
- MIC [34]: 8 µg/mL (≈ 15.8 µM)
- MIC [35]: 4 µg/mL (≈ 7.9 µM)
- MIC [36]: 0.5 µg/mL (≈ 0.987 µM)
- MIC [37]: 8 µg/mL (≈ 15.8 µM)
- MIC [38]: 2 µg/mL (≈ 3.95 µM)
- K [39]: 5 10^5/M/s
- MIC [40]: 0.5 µg/mL (≈ 0.987 µM)
- MIC [41]: 4 µg/mL (≈ 7.9 µM)
- MIC [42]: 8 µg/mL (≈ 15.8 µM)
- T1/2 [43]: 1.3 h
- inhibition [44]: inactive
SMILES: C[C@]1(COC(=O)Cc2ccc(O)c(O)c2)[C@H](C(=O)O)N2C(=O)/C(=C/c3ccc(F)cn3)[C@H]2S1(=O)=O

SMILES: C[C@]1(Cn2ccnn2)[C@H](C(=O)O)N2C(=O)C[C@H]2S1(=O)=O [TAZOBACTAM]
- IC50 [15]: 844 nM
